{"source": "patent US7261876B2", "about": "“Multivalent constructs for therapeutic and diagnostic applications” (Bracco International BV, priority 2002, dated 2007)", "key": {"[1]": {"test_system": "SW-480 human colon carcinoma cells", "experiment": "In vivo xenograft tumor model", "details": "Study Day 22; 6.0 mg/kg IV, five doses"}, "[2]": {"test_system": "HUVECs", "experiment": "Endothelial cell proliferation assay, BrdU detection", "assay_type": "cell-based, human", "details": "10 μg/mL, in the presence of VEGF (30 ng/mL)", "description": "Briefly, freshly isolated HUVECs (between p3–6) were cultured in RPMI+10% FCS+1% antibiotics+1% 1-glutamin+0.4% BBE (bovine brain extract) and seeded per well, 5000–10000/well in 100 μL. The cells were allowed to recover for 24 h prior to use. Then the cells were washed with PBS twice and treated for 48 h with anti-VEGF antibody (positive control) or peptides A, B and C (0.1 and 10 ug/mL) in RPMI+0.1% BSA+1% 1-glutamin. The following 6 variables were tested in 2 series (n=4): • Series I: w/o VEGF • Series II: w/VEGF (30 ng/mL) • 1. Standard medium: RPMI+10% FCS+1% antibiotics+1% 1-glutamin+0.4% BBE • 2. Negative control 1: RPMI (true starvation) • 3. Negative control 2: RPMI+0.1% BSA+1% 1-glutamin • 1. Positive control: anti-VEGF 10 μg/ml in RPMI+0.1% BSA+1% 1-glutamin • 5. 0.1 μg/ml KDR peptides in RPMI+0.1% BSA+1% 1-glutamin • 6. […] Note: Background binding was determined by omitting the anti-BrdU antibody in 4 wells with control cells (cultured in complete medium; EBM+BulletKit) and by complete labeling of cells that was not exposed to BrdU."}, "[3]": {"test_system": "VEGF-induced migration of HUVECs", "experiment": "HUVEC migration/invasion assay", "assay_type": "cell-based, human"}, "[4]": {"target": "T1, KDR-transfected 293H cells (Homo sapiens, UniProt P35968)", "T1 construct": "Both PCR products were digested with Not1 and ligated together to create the full-length receptor; V5-His (encoded by the vector); expressed in transfected cells; host or cells: 293H cells (Invitrogen cat. # 11631), transient lipofectamine 2000 transfection", "T1 sequence (P35968 20-1356)": "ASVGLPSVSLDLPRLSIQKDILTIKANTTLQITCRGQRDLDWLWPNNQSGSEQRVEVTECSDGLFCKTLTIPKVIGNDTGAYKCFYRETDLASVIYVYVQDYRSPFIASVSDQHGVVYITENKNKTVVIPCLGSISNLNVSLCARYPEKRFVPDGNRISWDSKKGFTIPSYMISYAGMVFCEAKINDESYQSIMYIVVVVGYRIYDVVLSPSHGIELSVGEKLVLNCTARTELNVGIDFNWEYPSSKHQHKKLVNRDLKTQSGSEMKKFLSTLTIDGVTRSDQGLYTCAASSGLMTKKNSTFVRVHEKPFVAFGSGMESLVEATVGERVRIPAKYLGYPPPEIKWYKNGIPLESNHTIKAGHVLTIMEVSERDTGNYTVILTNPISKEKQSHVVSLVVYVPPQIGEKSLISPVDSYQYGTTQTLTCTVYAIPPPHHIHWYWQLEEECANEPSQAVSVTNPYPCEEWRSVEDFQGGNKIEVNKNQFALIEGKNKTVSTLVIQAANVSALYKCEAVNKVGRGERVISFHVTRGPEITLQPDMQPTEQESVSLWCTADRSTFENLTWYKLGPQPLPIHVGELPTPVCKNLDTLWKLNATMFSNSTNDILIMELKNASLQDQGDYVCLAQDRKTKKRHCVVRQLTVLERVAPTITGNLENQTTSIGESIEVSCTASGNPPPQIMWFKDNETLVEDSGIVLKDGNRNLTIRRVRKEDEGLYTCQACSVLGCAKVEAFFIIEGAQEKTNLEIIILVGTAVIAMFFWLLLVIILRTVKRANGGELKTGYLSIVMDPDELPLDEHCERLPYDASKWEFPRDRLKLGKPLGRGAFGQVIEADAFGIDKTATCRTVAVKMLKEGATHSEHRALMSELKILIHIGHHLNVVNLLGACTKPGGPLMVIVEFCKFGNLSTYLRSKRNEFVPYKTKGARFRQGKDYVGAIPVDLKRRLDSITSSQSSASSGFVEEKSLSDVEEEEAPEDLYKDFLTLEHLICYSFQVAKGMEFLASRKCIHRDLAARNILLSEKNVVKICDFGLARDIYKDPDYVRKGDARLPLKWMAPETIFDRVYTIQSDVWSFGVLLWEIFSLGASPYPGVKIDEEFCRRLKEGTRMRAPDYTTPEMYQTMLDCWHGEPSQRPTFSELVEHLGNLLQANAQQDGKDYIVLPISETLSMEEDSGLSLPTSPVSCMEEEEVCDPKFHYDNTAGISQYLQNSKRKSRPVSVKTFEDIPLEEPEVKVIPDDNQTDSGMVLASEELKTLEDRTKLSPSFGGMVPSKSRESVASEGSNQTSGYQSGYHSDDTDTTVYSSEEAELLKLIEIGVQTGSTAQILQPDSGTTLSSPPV", "experiment": "Binding of peptide-conjugated microbubbles to KDR-transfected cells", "assay_type": "cell-based", "description": "293H cells were transfected with KDR cDNA. […] Competition was also performed using a non-binding control peptide as a competing compound.\n293H cells were transfected with KDR cDNA.\nD23 (a dimeric construct of P6- and P12-derived sequences) was conjugated with a preparation of microbubbles as above described, according to the following methodology. The thioacetylated peptide ([…]) was dissolved in 20 μl DMSO and then diluted in 1 ml of Phosphate Buffer Saline (PBS). This solution was mixed to the N-MPB-functionalized microbubbles dispersed in 18 ml of PBS-EDTA 10 mM, pH 7.5 and 2 ml of deacetylation solution (50 mM sodium phosphate, 25 mM EDTA, 0.5 M hydroxylamine.HCl, pH 7.5) was added. The headspace was filled with C4F10/Air (50/50) and the mixture was incubated for 2.5 hours at room temperature under gentle agitation (rotating wheel), in the dark. Conjugated bubbles were washed by centrifugation. Similarly, the monomer peptides making up D23 were separately conjugated to two different microbubble preparations according to the methodology described above."}, "[5]": {"target": "T2, KDR/VEGF complex (Homo sapiens, UniProt P35968)", "T2 construct": "Both PCR products were digested with Not1 and ligated together to create the full-length receptor; V5-His (encoded by the vector); expressed in transfected cells; host or cells: 293H cells, transiently transfected; VEGF added exogenously", "T2 sequence (P35968 20-1356)": "as above", "T2 sequence (P15692 27-191 isoform P15692-4 partner)": "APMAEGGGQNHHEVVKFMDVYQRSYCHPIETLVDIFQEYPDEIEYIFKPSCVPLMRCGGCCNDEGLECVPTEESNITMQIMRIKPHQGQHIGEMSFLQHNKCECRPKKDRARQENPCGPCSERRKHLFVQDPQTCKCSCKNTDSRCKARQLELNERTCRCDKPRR", "experiment": "Cell based assay for binding of KDR/VEGF complex binders (peptide-125I-streptavidin complexes)", "details": "in the presence of VEGF", "from_the_text": "Furthermore, these peptides, as well as other peptides which bind KDR/VEGF complex may advantageously be included in heteromultimers of the invention."}, "[6]": {"target": "T3, KDR-expressing 293H cells (Homo sapiens, UniProt P35968)", "T3 construct": "Both PCR products were digested with Not1 and ligated together to create the full-length receptor; V5-His (encoded by the vector); expressed in transfected cells; host or cells: 293H cells (Invitrogen cat. # 11631), transient lipofectamine 2000 transfection", "T3 sequence (P35968 20-1356)": "as the sequence (P35968 20-1356) above", "experiment": "Bead-binding assay, peptide-conjugated fluorescent beads", "assay_type": "cell-based", "details": "Neutravidin-coated beads, 40% FBS", "description": "As a positive control, biotinylated anti-KDR antibody was incubated with the Neutravidin-coated beads as above, except that 0.03 mg of the biotinylated antibody preparation in PBS (Gibco 14190-136) was used instead of peptide solution. Beads can be stored at 4° C. until needed for up to 1 week.\n293H cells were transfected using the protocol described in Example 6. Transfection was done in black/clear 96-well plates (Becton Dickinson, cat. # 354640). The cells in one half of the plate (48 wells) were mock-transfected (with no DNA) and those in the other half of the plate were transfected with KDR cDNA. The cells were 80–90% confluent at the time of transfection and completely confluent the next day, at the time of the assay; otherwise the assay was aborted.\nFrom the above bead preparations, 0.12 mL was spun for 10 minutes at 2000 rpm in a microcentrifuge at room temperature. The supernatant was removed and 0.06 mL of MES pH 6.0 was added. Each bead solution was then vortexed and sonicated in a water bath 15 min. To 1.47 mL of DMEM, high glucose (GIBCO 11965-084) with 1×MEM Non-Essential Amino Acids Solution (NEAA) (GIBCO 11140-050) and 40% FBS (Hyclone SH30070.02) 0.03 mL of the sonicated bead preparations was added. 96-well plates seeded with 293H cells which have been mock-transfected in columns 1 to 6, and KDR-transfected in columns 7 to 12 (as described above), were drained and washed once with DMEM, high glucose with 1×NEAA and 40% FBS. To each well was added 0.1 mL of bead solution, six wells per bead preparation. […] After draining, 0.1 mL of PBS was added per well. The plates were then read on a Packard FluoroCount fluorometer at excitation 550 nm/emission 620 nm. Unconjugated Neutravidin beads were used as a negative control while beads conjugated with a biotinylated anti-KDR antibody were used as the positive control for the assay.\nTo calculate the number of beads bound per well, a standard curve with increasing numbers of the same fluorescent beads was included in each assay plate. The standard curve was used to calculate the number of beads bound per well based on the fluorescence intensity of each well."}, "[7]": {"target": "T4, KDR expressed by transfected 293H cells (Homo sapiens, UniProt P35968)", "T4 construct": "Both PCR products were digested with Not1 and ligated together to create the full-length receptor; V5-His (encoded by the vector); expressed in transfected cells; host or cells: 293H cells (Invitrogen cat. # 11631), transient lipofectamine 2000 transfection", "T4 sequence (P35968 20-1356)": "as above", "experiment": "Competition with 125I-labeled VEGF for binding to KDR-transfected 293H cells"}, "[8]": {"target": "T5, KDR transfected cells (Homo sapiens, UniProt P35968)", "T5 construct": "Both PCR products were digested with Not1 and ligated together to create the full-length receptor; V5-His (encoded by the vector); expressed in transfected cells; host or cells: 293H cells (Invitrogen cat. # 11631), transient lipofectamine 2000 transfection", "T5 sequence (P35968 20-1356)": "as above", "experiment": "Competition of free peptides with P5-XB/avidin HRP complex (Experiment E)", "assay_type": "binding", "details": "P5-XB/avidin HRP 3.33 nM; free peptide 0–[…]", "from_the_text": "If the peptides bind to the same site on KDR, they would likely compete with each other for binding to KDR, whereas if the peptides bind to different sites, there should be no competition between the peptides for binding to KDR."}, "[9]": {"target": "T6, KDR-expressing cells (Homo sapiens, UniProt P35968)", "T6 construct": "Both PCR products were digested with Not1 and ligated together to create the full-length receptor; V5-His (encoded by the vector); expressed in transfected cells; host or cells: 293H cells (Invitrogen cat. # 11631), transient lipofectamine 2000 transfection", "T6 sequence (P35968 20-1356)": "as above", "experiment": "Displacement assay competing with P12-XB/streptavidin-HRP complex for binding to KDR-expressing cells", "details": "complex concentration 5.5 nM"}, "[10]": {"target": "T1, KDR-transfected 293H cells", "experiment": "Binding of radiolabeled (Tc, I, Lu) peptides to KDR-transfected 293H cells"}}, "note": "“Also recorded” adds a separate entry of the source. No end group written: not given here."}
{"compound": "N.N.[Cl][Pt][Cl]", "note": "[Cisplatin]", "values": [{"measurement": "mean tumor weight", "setting": "[1]", "value": 995, "unit": "mg"}]}
{"compound": "CC(=O)N[C@@H](C)C(=O)NCC(=O)N1CCC[C@H]1C(=O)N[C@H](C(=O)N[C@@H](Cc1c[nH]c2ccccc12)C(=O)N[C@H]1CSSC[C@@H](C(=O)N[C@@H](Cc2c[nH]c3ccccc23)C(=O)N[C@@H](CC(C)C)C(=O)N[C@@H](Cc2ccccc2)C(=O)NCC(=O)N[C@H](C(=O)NCC(=O)NCC(=O)NCC(=O)N[C@@H](CCCCN)C(N)=O)[C@@H](C)O)NC(=O)[C@H](Cc2ccc(O)cc2)NC(=O)[C@H](Cc2ccc(O)cc2)NC(=O)[C@H](Cc2c[nH]c3ccccc23)NC(=O)[C@H](CC(=O)O)NC(=O)[C@H](CC(=O)O)NC(=O)[C@H](CCC(=O)O)NC1=O)[C@@H](C)O", "note": "[P12-G, Ac-AGPTWC*EDDWYYC*WLFGT-GGGK-NH2]", "values": [{"measurement": "inhibition of HUVEC proliferation", "setting": "[2]", "value": "does not inhibit proliferation"}]}
{"compound": "CC(C)c1cc(/C=C(\\C#N)C(=O)NCCCc2ccccc2)cc(C(C)C)c1O", "note": "[SU1498, (E)-3-(3,5-Diisopropyl-4-hydroxyphenyl)-2-[(3-phenyl-n-propyl)aminocarbonyl]acrylonitrile]", "values": [{"measurement": "VEGF-induced migration blocked", "setting": "[3]; 3 micromolar", "value": 47, "unit": "%"}]}
{"compound": "AGPTWCEDDWYYCWLFGT [P12]", "values": [{"measurement": "competition of conjugated microbubbles by free peptide", "setting": "[4]; Experiment A, free peptide 100 μM to 3 nM", "value": "competed off by the corresponding free KDR-specific peptide"}]}
{"compound": "Ac-AGMPWCVEKDHWDCWWWGTGGGK(Biotin-JJ)-NH2 [P31-XB]", "values": [{"measurement": "specific binding of peptide-125I-streptavidin complex (KDR-mock)", "setting": "[5]", "value": "Only the complex containing P30-XB showed specific binding"}]}
{"compound": "Ac-AGPGPCKGYMPHQCWYMGTGGGK(Biotin-JJ)-NH2 [P30-XB]", "values": [{"measurement": "specific binding of peptide-125I-streptavidin complex (KDR-mock)", "setting": "[5]", "value": "specifically bound to KDR-transfected 293H cells; also recorded: showed specific binding"}]}
{"compound": "Ac-AGPKWC*EEDWYYC*MITGT-GGGK-(Biotin)-NH2 [P5-B]", "values": [{"measurement": "binding of ligand-coated fluorescent beads to KDR-transfected vs mock-transfected cells", "setting": "[6]", "value": "did not bind to the KDR-transfected cells significantly more than to mock-transfected cells"}]}
{"compound": "Ac-AGPKWC*EEDWYYC*MITGTGGGK-(Biotin-JJ-)-NH2 [P5-XB]", "values": [{"measurement": "percentage inhibition of 125I-labeled VEGF binding", "setting": "[7]; 0.3 μM peptide", "value": "24.41±8.43", "unit": "%"}, {"measurement": "percentage inhibition of 125I-labeled VEGF binding", "setting": "[7]; 30 μM peptide", "value": "47.95±5.09", "unit": "%"}, {"measurement": "binding of ligand-coated fluorescent beads to KDR-transfected vs mock-transfected cells", "setting": "[6]", "value": "Specific binding to KDR was detected"}, {"measurement": "competition with P5-XB/avidin HRP solution for binding", "setting": "[8]", "value": "does compete"}]}
{"compound": "Ac-AGYGPCKNMPPWMCWHEGTGGGK(Biotin-JJ)-NH2 [P32-XB]", "values": [{"measurement": "specific binding of peptide-125I-streptavidin complex (KDR-mock)", "setting": "[5]", "value": "Only the complex containing P30-XB showed specific binding"}]}
{"compound": "Ac-DWYYGGGK-NH2 [F1]", "values": [{"measurement": "inhibition of P12-XB streptavidin-HRP complex binding", "setting": "[9]", "value": "IC50 below one micromolar"}]}
{"compound": "Ac-ERVTTCWPGEYGGVECYSVAY-NH2 (cysteine pairing not given here) [PG-1, reference compound]", "values": [{"measurement": "competition with 125I-VEGF for binding to KDR-transfected cells", "setting": "[7]", "value": "competed about equally well"}, {"measurement": "VEGF-stimulated migration", "setting": "[3]; up to 62.5 nM", "value": "had no effect on VEGF-stimulated migration"}]}
{"compound": "Ac-GDSRVC*WEDSWGGEVC*FRYDP-GGGK-(Biotin)-NH2 [P6-B]", "values": [{"measurement": "binding of ligand-coated fluorescent beads to KDR-transfected vs mock-transfected cells", "setting": "[6]", "value": "showed greater binding to KDR-transfected cells"}]}
{"compound": "Ac-GDSRVC*WEDSWGGEVC*FRYDPGGGK-(Biotin-JJ-)-NH2 [P6-XB]", "values": [{"measurement": "competition with P5-XB/avidin HRP solution for binding", "setting": "[8]", "value": "do not compete"}]}
{"compound": "GDSRVCWEDSWGGEVCFRYDP [P6]", "values": [{"measurement": "binding of conjugated microbubbles", "setting": "[4]; Experiment C, 50% human serum", "value": "bound poorly"}, {"measurement": "binding of ligand-coated fluorescent beads to KDR-transfected vs mock-transfected cells", "setting": "[6]", "value": "Specific binding to KDR was detected"}]}
{"compound": "Tc-labeled D18: 99mTc-labeled scrambled dimer D18 (peptide 1 APGTWCDYDWEYCWLGTFGGGK; peptide 2 GVDFRCEWSDWGEVGCRSPDYGGGK; not fully specified (bridges); cysteine pairing not given here; also: 99mTc label, site not given here, heterodimer, linkage not given here)", "values": [{"measurement": "binding of radiolabeled compound to KDR transfected vs mock transfected 293H cells", "setting": "[10]", "value": "displayed no affinity for either mock-transfected or KDR-transfected 293H cells"}]}
